Where a name gives a salt, the structure may show the parent alone. Read-outs that look alike come from different tables or passages of the source.
Columns and labels:
SCG neurons = test: cells; format: cell-based, Sprague Dawley rats; settings: for IC50: Rattus norvegicus, Neuron, read-out: IC(50), protection of SCG neurons from Taxol killing; for inhibition of Taxol™ induced killing of SCGs: concentrations as high as 50 μM
Procedure: Taxol™ is regularly used in breast cancer chemotherapy. In cancer cells Taxol™ binds to the cyto-skeletal protein tubulin, thereby inhibiting normal microtubular assembly and inducing cellular apoptosis. Despite its potency as an anti-tumour agent, Taxol™ is also toxic to neurons, inducing dose limiting peripheral neuropathies. The addition of Taxol™ (100 ng/mL) to cultured SCG neurons induces the degradation or loss of upwards of 80% of the neurons.
FIG. 1 illustrates the protection provided by compound 1 (referred to here as AEG3482) against Taxol™ induced killing. PI Sprague Dawley rat SCG neurons were cultured and incubated with NGF (50 ng/mL) for 5 days.

CA II = CA II (Homo sapiens, UniProt P00918); test: CA II inhibition; format: biochemical; settings: read-out: IC(50), CA II inhibition
Procedure: CA II inhabition was measured using the protocol described by Pocker, Y.'Stone, J. Biochemistry 1967, 6, 668.

[1] = Taxol™ (50 ng/mL), viability 48 hours later, MTS

IC50 (CA II) [µM] | Compound | IC50 (SCG neurons; [1]) [µM] | further results
0.337 | COc1ccc(OC)c(-c2cn3nc(S(N)(=O)=O)sc3n2)c1 [Compound 18, 6-(2,5-Dimethoxyphenyl)imidazo[2,1-b]-1,3,4-thiadiazole-2-sulfonamide] | 20 | –
0.601 | CCCCCc1ccc(-c2cn3nc(S(N)(=O)=O)sc3n2)cc1 [Compound 46, 6-(4-Pentylphenyl)imidazo[2,1-b]-1,3,4-thiadiazole-2-sulfonamide] | 7 | –
60.3 | CCCCN(CCCC)S(=O)(=O)c1nn2cc(-c3cccc(OC)c3)nc2s1 [Compound 142, 6-(3-Methoxyphenyl)imidazo[2,1-b]-1,3,4-thiadiazole-2-N,N-dibutylsulfonamide] | > 30 | –
0.198 | NS(=O)(=O)c1nn2cc(-c3ccc(Br)cc3)nc2s1 [Compound 14, 6-(4-Bromophenyl)-imidazo[2,1-b]-1,3,4-thiadiazole-2-sulfonamide] | 5 | –
0.938 | CC(C)(C)c1cc(-c2cn3nc(S(N)(=O)=O)sc3n2)c2c(c1)C(C)(C)CC2 [Compound 50] | 7 | –
0.886 | CS(=O)(=O)c1ccc(-c2cn3nc(S(N)(=O)=O)sc3n2)cc1 [Compound 43, 6-(4-(methylsulfonyl)phenyl)imidazo[2,1-b]-1,3,4-thiadiazole-2-sulfonamide] | – | –
0.302 | NS(=O)(=O)c1nn2cc(-c3ccc(OC(F)(F)F)cc3)nc2s1 [Compound 25, 6-(4-trifloromethoxyphenyl)imidazo[2,1-b]-1,3,4-thiadiazole-2-sulfonamide] | 5 | –
0.164 | NS(=O)(=O)c1nn2cc(-c3c(F)c(F)c(F)c(F)c3F)nc2s1 [Compound 6, 6-(2,3,4,5,6-Pentafluorophenyl)imidazo[2,1-b]-1,3,4-thiadiazole-2-sulfonamide] | 3 | –
0.153 | NS(=O)(=O)c1nn2cc(-c3ccc(O)c(O)c3)nc2s1 [Compound 22] | 25 | –
1.47 | NS(=O)(=O)c1nn2cc(-c3c(F)c(F)c(SCc4ccccc4)c(F)c3F)nc2s1 [Compound 8, 6-(4-Benzylthio-2,3,5,6-tetrafluorophenyl)imidazo[2,1-b]-1,3,4-thiadiazole-2-sulfonamide] | 5 | –
0.288 | Cc1ccc(-c2cn3nc(S(N)(=O)=O)sc3n2)c(C)c1 [Compound 48, 6-(2,4-dimethylphenyl)imidazo[2,1-b]-1,3,4-thiadiazole-2-sulfonamide] | 5 | –
0.152 | COc1ccccc1-c1cn2nc(S(N)(=O)=O)sc2n1 [Compound 15, 6-(2-Methoxyphenyl)imidazo[2,1-b]-1,3,4-thiadiazole-2-sulfonamide] | 10 | –
0.15 | COc1cccc(-c2cn3nc(S(N)(=O)=O)sc3n2)c1 [Compound 16, 6-(3-Methoxyphenyl)imidazo[2,1-b]-1,3,4-thiadiazole-2-sulfonamide] | 5 | –
0.154 | NS(=O)(=O)c1nn2cc(-c3ccc(C(=O)O)cc3)nc2s1 [Compound 39] | – | –
– | COC(=O)COc1ccc(-c2nc3sc(S(N)(=O)=O)nn3c2C)cc1 [Compound 103] | > 30 | –
– | CC(=O)Nc1nnc(S(N)(=O)=O)s1 [acetazolamide, reference compound] | – | inhibition of Taxol™ induced killing of SCGs (SCG neurons): failed to significantly inhibit
– | Nc1ccc(S(=O)(=O)Nc2nnc(S(N)(=O)=O)s2)cc1 [aminobenzolamide, reference compound] | – | inhibition of Taxol™ induced killing of SCGs (SCG neurons): failed to significantly inhibit
– | CN(C)S(=O)(=O)c1nn2cc(-c3cccc(OC(=O)c4ccccc4)c3)nc2s1 [Compound 146, 6-(3-Benzoyloxyphenyl)imidazo[2,1-b]-1,3,4-thiadiazole-2-N,N-dimethylsulfonamide] | 20 | –
– | Nc1nnc(Sc2c(-c3ccc4ccccc4c3)nc3sc(S(N)(=O)=O)nn23)s1 [Compound 136] | 5 | –
– | NS(=O)(=O)c1nn2cc(-c3ccc(-c4ccccc4)s3)nc2s1 [Compound 113, 6-(5-Phenylthiophen-2-yl)-imidazo[2,1-b]-1,3,4-thiadiazole-2-sulfonamide] | 7 | –
– | CC1(C)CCC(C)(C)c2cc(-c3cn4nc(S(N)(=O)=O)sc4n3)ccc21 [Compound 56, 6-(5,5,8,8-Tetramethyl-5,6,7,8-tetrahydronaphthalen-2-yl)imidazo[2,1-b]-1,3,4-thiadiazole-2-sulfonamide] | – | IC50 (SCG neurons; 48 h): 3 µM
– | COc1cccc(-c2nc3sc(S(N)(=O)=O)nn3c2Br)c1Br [Compound 129, 5-Bromo-6-(2-bromo3-methoxyphenyl)imidazo[2,1-b]-1,3,4-thiadiazole-2-sulfonamide hydrobromide] | 7 | –
– | NS(=O)(=O)c1nn2c(Br)c(-c3ccc4ccccc4c3)nc2s1 [Compound 130, 5-Bromo-6-(2-naphthyl)imidazo[2,1-b]-1,3,4-thiadiazole-2-sulfonamide hydrobromide] | 2 | –

IC50 (CA II) [µM] | Compound | IC50 (SCG neurons; [1]) [µM] | further results
– | NS(=O)(=O)c1nn2c(Sc3ccccc3)c(-c3ccc4ccccc4c3)nc2s1 [Compound 135, 5-Thiophenyl-6-(2-naphthyl)imidazo[2,1-b]-1,3,4-thiadiazole-2-sulfonamide] | 7 | –
– | NS(=O)(=O)c1nn2c(Br)c(-c3ccc(-c4ccccc4)cc3)nc2s1 [Compound 132, 5-Bromo-6-(biphenyl)imidazo[2,1-b]-1,3,4-thiadiazole-2-sulfonamide hydrobromide] | 1 | –
– | Cc1nc(C)c(-c2cn3nc(S(N)(=O)=O)sc3n2)s1 [Compound 122, 6-(2,4-Thiaxol-5-yl)imidazo[2,1-b]-1,3,4-thiadiazole-2-sulfonamide] | 8 | –
– | Cc1cc2c(cc1-c1cn3nc(S(N)(=O)=O)sc3n1)C(C)(C)CCC2(C)C [Compound 57] | – | IC50 (SCG neurons; 48 h): 6 µM
– | NS(=O)(=O)c1nn2cc(-c3cccc4ccccc34)nc2s1 [Compound 61, 6-(1-Naphthyl)imidazo[2,1-b]-1,3,4-thiadiazole-2-sulfonamide] | 10 | –
0.166 | CCN(CC)S(=O)(=O)c1ccc(-c2cn3nc(S(N)(=O)=O)sc3n2)cc1 [Compound 45] | – | –
– | Cc1ccc(C23CC4CC(CC(C4)C2)C3)cc1-c1cn2nc(S(N)(=O)=O)sc2n1 [Compound 51] | 5 | –
– | NS(=O)(=O)c1nn2cc(C(F)(F)F)nc2s1 [Compound 59] | 10 | –
– | NS(=O)(=O)c1nn2c(Cl)c(-c3ccc(-c4ccccc4)cc3)nc2s1 [Compound 131, 5-Chloro-6-(biphenyl)imidazo[2,1-b]-1,3,4-thiadiazole-2-sulfonamide hydrobromide] | 3 | –
– | Cc1c(-c2ccccc2)nc2sc(S(N)(=O)=O)nn12 [Compound 65, 5-Methyl-6-phenyl-imidazo[2,1-b]-1,3,4-thiadiazole-2-sulfonamide] | 15 | –
– | CCN(CC)S(=O)(=O)c1nn2cc(-c3cccc(OC)c3)nc2s1 [Compound 141] | > 30 | –
– | NS(=O)(=O)c1nn2cc(-c3cc(-c4ccccc4)no3)nc2s1 [Compound 117, 6-(3-Phenylisoxazol-5-yl)imidazo[2,1-b]-1,3,4-thiadiazole-2-sulfonamide] | 3 | –
– | NS(=O)(=O)c1nn2cc(-c3ccc(OCC(=O)O)cc3)nc2s1 [Compound 102] | > 30 | –
– | NS(=O)(=O)c1nn2cc(-c3ccc([N+](=O)[O-])cc3)nc2s1 [Compound 153, 6-(4-Nitrophenyl)imidazo[2,1-b]-1,3,4-thiadiazole-2-sulfonamide] | 5 | –
– | NS(=O)(=O)c1nn2c(Br)c(C(F)(F)F)nc2s1 [Compound 134, 5-Bromo-6-trifluoromethylimidazo[2,1-b]-1,3,4-thiadiazole-2-sulfonamide] | 1 | –
– | NS(=O)(=O)c1nn2c(Br)c(-c3ccccc3)nc2s1 [Compound 124, 5-Bromo-6-phenyl-imidazo[2,1-b]-1,3,4-thiadiazole-2-sulfonamide hydrobromide] | 3 | –
– | NS(=O)(=O)c1nn2cc(-c3ccc(N4CCOCC4)cc3)nc2s1 [Compound 68, 6-(4-Morpholinophenyl)imidazo[2,1-b]-1,3,4-thiadiazole-2-sulfonamide] | 7 | –
– | NS(=O)(=O)c1nn2cc(-c3cccs3)nc2s1 [Compound 112, 6-(2-Thiophenyl)-imidazo[2,1-b]-1,3,4-thiadiazole-2-sulfonamide] | 5 | –
– | NS(=O)(=O)c1nn2cc(-c3cnccn3)nc2s1 [Compound 108] | 5 | –
– | Cc1onc(-c2ccccc2)c1-c1cn2nc(S(N)(=O)=O)sc2n1 [Compound 118, 6-(5-Methyl-3-phenylisoxazol-4-yl)imidazo[2,1-b]-1,3,4-thiadiazole-2-sulfonamide] | 17 | –
– | CC(=O)Nc1ccc(S(=O)(=O)Nc2nnc(S(N)(=O)=O)s2)cc1 [N-acetylaminobenzolamide, reference compound] | – | inhibition of Taxol™ induced killing of SCGs (SCG neurons): failed to significantly inhibit
– | CN(C)S(=O)(=O)c1nn2cc(-c3ccc4ccccc4c3)nc2s1 [Compound 147, 6-(2-Naphthyl)imidazo[2,1-b]-1,3,4-thiadiazole-2-N,N-dimethylsulfonamide] | 17 | –
– | [N-]=[N+]=Nc1c(F)c(F)c(-c2cn3nc(S(N)(=O)=O)sc3n2)c(F)c1F [Compound 151, 6-(4-Azido-2,3,5,6-tetraflourophenyl)imidazo[2,1-b]-1,3,4-thiadiazole-2-sulfonamide] | 2 | –
